Biological target: T1, human TRPC6 (Homo sapiens, UniProt Q9Y210)
T1 construct: expressed in transfected cells
T1 sequence (Q9Y210 1-931): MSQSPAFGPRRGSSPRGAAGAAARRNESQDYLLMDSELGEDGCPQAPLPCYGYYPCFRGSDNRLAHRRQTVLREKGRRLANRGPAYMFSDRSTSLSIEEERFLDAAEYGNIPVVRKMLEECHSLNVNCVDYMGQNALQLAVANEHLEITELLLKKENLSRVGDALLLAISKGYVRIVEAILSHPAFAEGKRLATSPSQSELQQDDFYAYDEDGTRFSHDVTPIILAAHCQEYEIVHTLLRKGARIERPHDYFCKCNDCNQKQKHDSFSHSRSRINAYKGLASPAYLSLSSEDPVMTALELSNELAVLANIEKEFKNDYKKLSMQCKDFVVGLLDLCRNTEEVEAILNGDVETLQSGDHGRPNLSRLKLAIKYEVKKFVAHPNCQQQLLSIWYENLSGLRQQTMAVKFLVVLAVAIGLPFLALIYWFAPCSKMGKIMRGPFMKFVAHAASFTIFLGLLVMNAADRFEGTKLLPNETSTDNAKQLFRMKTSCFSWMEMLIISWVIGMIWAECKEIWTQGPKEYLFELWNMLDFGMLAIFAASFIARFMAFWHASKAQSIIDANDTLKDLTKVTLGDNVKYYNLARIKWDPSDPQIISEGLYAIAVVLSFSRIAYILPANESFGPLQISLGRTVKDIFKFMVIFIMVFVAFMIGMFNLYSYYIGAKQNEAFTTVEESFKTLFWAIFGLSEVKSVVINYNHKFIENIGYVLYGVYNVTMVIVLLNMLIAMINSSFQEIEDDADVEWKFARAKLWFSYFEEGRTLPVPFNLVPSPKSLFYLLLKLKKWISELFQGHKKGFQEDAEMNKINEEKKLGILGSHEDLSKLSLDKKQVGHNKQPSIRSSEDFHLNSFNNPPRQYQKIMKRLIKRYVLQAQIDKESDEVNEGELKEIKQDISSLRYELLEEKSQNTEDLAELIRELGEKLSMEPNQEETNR
Assay: TRPC6 calcium flux assay (FLIPR, OAG-stimulated calcium influx)
Assay type: cell-based
Settings: HEK293 cells stably transfected with human TRPC6, read-out: hTRPC6 Potency
Outline: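 HEK293 cells stably expressing human TRPC6, loaded with calcium dye 90–120 min at RT, then given compound for 25 min before OAG (50 uM final, 0.5% DMSO) in HEPES buffer pH 7.2 with 2 mM CaCl2. Background-subtracted FLIPR peak over 180 s normalized to OAG vs buffer; IC50 from dose plot.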

Q: Which IC50 does the source give for CN(CC(F)(F)F)C(=O)Cn1c(N2CC[C@@H](F)[C@H](N)C2)nc2cc(C(F)(F)F)ccc21 [Example 580, 2-(2-((3R,4R)-3-amino-4-fluoropiperidin-1-yl)-5-(trifluoromethyl)-1H-benzo[d]imidazol-1-yl)-N-methyl-N-(2,2,2-trifluoroethyl)acetamide] here?
A: The IC50 was 365 nM.

Q: With N#Cc1ccc(Cn2c(N3CCC[C@@H](N)C3)nc3ccccc32)nc1 [Example 291, (R)-6-((2-(3-aminopiperidin-1-yl)-1H-benzo[d]imidazol-1-yl)methyl)nicotinonitrile] as the compound, how does the IC50 read?
A: Its IC50 is over 3750 nM.

Q: With N#Cc1cc(F)cc2c1nc(N1CC[C@@H](F)[C@H](N)C1)n2Cc1ncc(F)cn1 [Example 37, 2-((3R,4R)-3-amino-4-fluoropiperidin-1-yl)-6-fluoro-1-((5-fluoropyrimidin-2-yl)methyl)-1H-benzo[d]imidazole-4-carbonitrile] as the compound, how does the IC50 read?
A: Its IC50 is 6.92 nM.

Q: With CN(CC(F)(F)F)C(=O)Cn1c(N2CC[C@@H](F)[C@H](N)C2)nc2ccc(Cl)cc21 [Example 559, 2-(2-((3R,4R)-3-amino-4-fluoropiperidin-1-yl)-6-chloro-1H-benzo[d]imidazol-1-yl)-N-methyl-N-(2,2,2-trifluoroethyl)acetamide] as the compound, how does the IC50 read?
A: The IC50 was 16.6 nM.

Q: How did the IC50 turn out when N#Cc1ccc(Cl)cc1Cn1c(N2CC[C@@H](F)[C@H](N)C2)nc2cc(F)c(F)cc21 [Example 347, 2-((2-((3R,4R)-3-amino-4-fluoro-1-piperidinyl)-5,6-difluoro-1H-benzimidazol-1-yl)methyl)-4-chlorobenzonitrile] was run?
A: The IC50 was 1.07 nM.

Q: With C[C@@H]1COCCN1C(=O)Cn1c(N2CC[C@@H](F)[C@H](N)C2)nc2ccc(F)cc21 [Example 681, 2-(2-((3R,4R)-3-amino-4-fluoropiperidin-1-yl)-6-fluoro-1H-benzo[d]imidazol-1-yl)-1-((R)-3-methylmorpholino)ethan-1-one] as the compound, how does the IC50 read?
A: Its IC50 is 168 nM.

Q: How did the IC50 turn out when N#Cc1ccc(Cn2c(N3C[C@@H]4NCCO[C@H]4C3)nc3ccccc32)nc1 [Example 101, 6-((2-((4aS,7aS)-hexahydropyrrolo[3,4-b][1,4]oxazin-6(2H)-yl)-1H-benzo[d]imidazol-1-yl)methyl)nicotinonitrile] was run?
A: Its IC50 is over 3750 nM.

Q: Which IC50 does the source give for N[C@@H]1CCCN(c2nc3ccccc3n2Cc2ccc(C(F)F)cc2)C1 [Example 381, (R)-1-(1-(4-(difluoromethyl)benzyl)-1H-benzo[d]imidazol-2-yl)piperidin-3-amine] here?
A: Its IC50 is 5680 nM.

Q: With N[C@@H]1CN(c2nc3cc(F)c(F)cc3n2[C@@H]2CCN(C3CC3)C2=O)CC[C@H]1F [Example 547, (R)-3-(2-((3R,4R)-3-amino-4-fluoropiperidin-1-yl)-5,6-difluoro-1H-benzo[d]imidazol-1-yl)-1-cyclopropylpyrrolidin-2-one] as the compound, how does the IC50 read?
A: Its IC50 is 43.7 nM.

Q: Which IC50 does the source give for CN[C@H]1CCCN(c2nc3cc(C(F)(F)F)ccc3n2Cc2ccc(C#N)cn2)C1 [Example 140, 6-((2-((3S)-3-(methylamino)-1-piperidinyl)-5-(trifluoromethyl)-1H-benzimidazol-1-yl)methyl)-3-pyridinecarbonitrile] here?
A: Its IC50 is 132 nM.

Q: For N#Cc1ccc(Cn2c(N3CC[C@@H](F)[C@H](N)C3)nc3ccc(C(F)(F)F)nc32)nc1 [Example 453, 6-((2-((3R,4R)-3-amino-4-fluoropiperidin-1-yl)-5-(trifluoromethyl)-3H-imidazo[4,5-b]pyridin-3-yl)methyl)nicotinonitrile], which IC50 is on record?
A: Its IC50 is 1.51 nM.

Q: N#Cc1ccc(Cn2c(N3CC[C@@H](F)[C@H](N)C3)nc3ccc(C#N)cc32)nc1 [Example 53, 2-((3R,4R)-3-amino-4-fluoropiperidin-1-yl)-1-((5-cyanopyridin-2-yl)methyl)-1H-benzo[d]imidazole-6-carbonitrile] was tested. Which IC50 did it give?
A: Its IC50 is 1.52 nM.

Q: How did the IC50 turn out when N#Cc1ccc(Cn2c(N3CC[C@H](F)[C@H](N)C3)nc3ccccc32)nc1 [Example 73, 6-((2-((3R,4S)-3-amino-4-fluoropiperidin-1-yl)-1H-benzo[d]imidazol-1-yl)methyl)nicotinonitrile] was run?
A: The IC50 was 1.09 nM.

Q: For Cc1nnc(Cn2c(N3CCC(F)(F)[C@H](N)C3)nc3cc(F)ccc32)s1 [Example 597, (R)-4,4-difluoro-1-(5-fluoro-1-((5-methyl-1,3,4-thiadiazol-2-yl)methyl)-1H-benzo[d]imidazol-2-yl)piperidin-3-amine], which IC50 is on record?
A: The IC50 was over 3750 nM.

Q: N#Cc1ccc(Cn2c(N3CC[C@@H](F)[C@H](N)C3)nc3nc(C(F)(F)F)ccc32)nc1 [Example 458, 6-((2-((3R,4R)-3-amino-4-fluoropiperidin-1-yl)-5-(trifluoromethyl)-1H-imidazo[4,5-b]pyridin-1-yl)methyl)nicotinonitrile] was tested. Which IC50 did it give?
A: The IC50 was 16.3 nM.

Q: Which IC50 does the source give for N[C@@H]1CN(c2nc3ccc(C(F)(F)F)cc3n2CC(=O)N2CCC2)CC[C@@H]1F [Example 308, 2-(2-((3R,4S)-3-amino-4-fluoropiperidin-1-yl)-6-(trifluoromethyl)-1H-benzo[d]imidazol-1-yl)-1-(azetidin-1-yl)ethan-1-one] here?
A: Its IC50 is over 3750 nM.

Q: Which IC50 does the source give for N[C@@H]1CN(c2nc3c(F)cc(F)cc3n2Cc2ncc(Cl)cn2)CC[C@H]1F [Example 258, (3R,4R)-1-(1-((5-chloro-2-pyrimidinyl)methyl)-4,6-difluoro-1H-benzimidazol-2-yl)-4-fluoro-3-piperidinamine] here?
A: Its IC50 is 0.288 nM.

Q: N#Cc1ccc(Cn2c(N3CC[C@@H](F)[C@H](N)C3)nc3cc(OC(F)(F)F)ccc32)nc1 [Example 20, 6-((2-((3R,4R)-3-amino-4-fluoropiperidin-1-yl)-5-(trifluoromethoxy)-1H-benzo[d]imidazol-1-yl)methyl)nicotinonitrile] was tested. Which IC50 did it give?
A: Its IC50 is 1.92 nM.

Q: With N#Cc1ccc2c(c1)nc(N1CC[C@@H](F)[C@H](N)C1)n2Cc1ncc(Cl)cn1 [Example 198] as the compound, how does the IC50 read?
A: The IC50 was 71.2 nM.

Q: Which IC50 does the source give for C[C@H](c1ccc(C#N)cn1)n1c(N2CC[C@H]3OCCN[C@@H]3C2)nc2c(F)cc(F)cc21 [Example 267, 6-((1R)-1-(4,6-difluoro-2-((4aR,8aR)-hexahydro-2H-pyrido[4,3-b][1,4]oxazin-6(5H)-yl)-1H-benzimidazol-1-yl)ethyl)-3-pyridinecarbonitrile] here?
A: The IC50 was over 50000 nM.

Q: For N#Cc1ccc(Cn2c(N3CC[C@@H](F)[C@H](N)C3)nc3cc(C(F)(F)F)ccc32)nc1 [Example 15, 6-((2-((3R,4R)-3-amino-4-fluoropiperidin-1-yl)-5-(trifluoromethyl)-1H-benzo[d]imidazol-1-yl)methyl)nicotinonitrile], which IC50 is on record?
A: The IC50 was 4.39 nM.

Q: CC(C)(C#N)C1CCN(C(=O)Cn2c(N3CC[C@@H](F)[C@H](N)C3)nc3cc(F)c(F)cc32)CC1 [Example 653, 2-(1-(2-(2-((3R,4R)-3-amino-4-fluoropiperidin-1-yl)-5,6-difluoro-1H-benzo[d]imidazol-1-yl)acetyl)piperidin-4-yl)-2-methylpropanenitrile] was tested. Which IC50 did it give?
A: The IC50 was over 3750 nM.

Q: With N[C@@H]1CN(c2nc3cc(F)c(F)cc3n2[C@@H]2CCN(c3ccc(Cl)cc3)C2=O)CC[C@H]1F [Example 248, (R)-3-(2-((3R,4R)-3-amino-4-fluoropiperidin-1-yl)-5,6-difluoro-1H-benzo[d]imidazol-1-yl)-1-(4-chlorophenyl)pyrrolidin-2-one] as the compound, how does the IC50 read?
A: Its IC50 is 5.07 nM.

Q: Which IC50 does the source give for N#Cc1ccc(Cn2c(N3CC[C@@H](F)[C@H](N)C3)nc3ncccc32)cc1 [Example 417, 4-((2-((3R,4R)-3-amino-4-fluoropiperidin-1-yl)-1H-imidazo[4,5-b]pyridin-1-yl)methyl)benzonitrile] here?
A: The IC50 was 12.7 nM.

Q: Which IC50 does the source give for N#Cc1ccc(Cn2c(N3CCC[C@H](N)C3)nc3cc(F)cc(F)c32)nc1 [Example 62, (S)-6-((2-(3-aminopiperidin-yl)-5,7-difluoro-1H-benzo[d]imidazol-1-yl)methyl)nicotinonitrile] here?
A: Its IC50 is 60.3 nM.

Q: Which IC50 does the source give for C[C@H](C(=O)N(C)C)n1c(N2CC[C@@H](F)[C@H](N)C2)nc2cc(F)c(F)cc21 [Example 279] here?
A: The IC50 was 7.16 nM.

Q: For C[C@H](c1ccc(Cl)c(Cl)c1)n1c(N2CC[C@@H](F)[C@H](N)C2)nc2cc(F)c(F)cc21 [Example 332, (3R,4R)-1-(1-((1R)-1-(3,4-dichlorophenyl)ethyl)-5,6-difluoro-1H-benzimidazol-2-yl)-4-fluoro-3-piperidinamine], which IC50 is on record?
A: Its IC50 is 3200 nM.

Q: For C[C@@H](c1cc(Cl)ccc1Cl)n1c(N2CC[C@@H](F)[C@H](N)C2)nc2cc(F)c(F)cc21 [Example 329, (3R,4R)-1-(1-((1S)-1-(2,5-dichlorophenyl)ethyl)-5,6-difluoro-1H-benzimidazol-2-yl)-4-fluoro-3-piperidinamine], which IC50 is on record?
A: Its IC50 is over 3750 nM.

Q: With CN(CC#N)C(=O)Cn1c(N2CC[C@@H](F)[C@H](N)C2)nc2cc(F)c(F)cc21 [Example 615, 2-(2-((3R,4R)-3-amino-4-fluoropiperidin-1-yl)-5,6-difluoro-1H-benzo[d]imidazol-1-yl)-N-(cyanomethyl)-N-methylacetamide] as the compound, how does the IC50 read?
A: Its IC50 is 28.5 nM.
